Reference: ChEMBL document CHEMBL1781953, “Synthesis and antimycobacterial activity of 5-formylaminopyrimidines; analogs of antibacterial purines” (Bioorg Med Chem Lett, 2009)
In brackets after ≈: the same amount, converted by molar mass.

Experiments:
Staphylococcus aureus = test: Antibacterial activity against Staphylococcus aureus; assay type: functional
Escherichia coli = test: Antibacterial activity against Escherichia coli; assay type: functional
Vero = test: Cytotoxicity against african green monkey Vero cells after 72 hrs by MTT assay; assay type: cell-based; settings: Chlorocebus sabaeus
[1] = Cytotoxicity against african green monkey Vero cells assessed as cell viability at 40 ug/mL after 72 hrs by MTT assay; assay type: cell-based; settings: chlorocebus sabaeus, read-out: Activity
[2] = tested on: Mycobacterium tuberculosis; test: Antimycobacterial activity against Mycobacterium tuberculosis H37Rv ATCC 27294 by microplate alamar blue assay; assay type: functional, organism-based

| Compound | MIC (Staphylococcus aureus) [µg/mL] | MIC (Escherichia coli) [µg/mL] | EC50 (Vero) [µg/mL] | viability at 72 h, 40 ug/mL [1] [%] | IC50 [2] [µg/mL] | IC90 [2] [µg/mL] |
| --- | --- | --- | --- | --- | --- | --- |
| GENTAMICIN | 0.1 |  |  |  |  |  |
| COc1ccc(CNc2nc([N+](=O)[O-])nc(-c3ccco3)c2NC=O)cc1 | > 64 | > 64 | > 40 | 62 |  |  |
| COc1ccc(CNc2nc(Cl)nc(-c3ccco3)c2NC=O)cc1 | > 64 | > 64 |  |  |  |  |
| COc1ccc(CNc2nc(C(F)(F)F)nc(-c3ccco3)c2NC=O)cc1 |  |  |  |  | 0.26 (≈ 0.663 µM) | 0.58 (≈ 1.48 µM) |
| COc1ccc(CNc2ncnc(-c3ccco3)c2NC=O)cc1 | > 64 | > 64 |  |  |  |  |
| COc1ccc(CNc2nc(F)nc(-c3ccco3)c2NC=O)cc1 | > 64 | > 64 |  |  |  |  |
